Test results published in the Kinase Knowledgebase extract (Sharma et al. 2016).

Experiments:
PIK3CA (human) = PIK3CA (human) (UniProt P42336); experiment: Assessment of PIK3CA Kinase Activity
PIK3CB (Human) = PIK3CB (Human) (UniProt P42338); experiment: Assessment of PIK3CB Kinase Activity
PIK3CD (Human) = PIK3CD (Human) (UniProt O00329); experiment: Assessment of PIK3CD Kinase Activity
Chain of PIK3CD (Human) (O00329 whole entry, looked up): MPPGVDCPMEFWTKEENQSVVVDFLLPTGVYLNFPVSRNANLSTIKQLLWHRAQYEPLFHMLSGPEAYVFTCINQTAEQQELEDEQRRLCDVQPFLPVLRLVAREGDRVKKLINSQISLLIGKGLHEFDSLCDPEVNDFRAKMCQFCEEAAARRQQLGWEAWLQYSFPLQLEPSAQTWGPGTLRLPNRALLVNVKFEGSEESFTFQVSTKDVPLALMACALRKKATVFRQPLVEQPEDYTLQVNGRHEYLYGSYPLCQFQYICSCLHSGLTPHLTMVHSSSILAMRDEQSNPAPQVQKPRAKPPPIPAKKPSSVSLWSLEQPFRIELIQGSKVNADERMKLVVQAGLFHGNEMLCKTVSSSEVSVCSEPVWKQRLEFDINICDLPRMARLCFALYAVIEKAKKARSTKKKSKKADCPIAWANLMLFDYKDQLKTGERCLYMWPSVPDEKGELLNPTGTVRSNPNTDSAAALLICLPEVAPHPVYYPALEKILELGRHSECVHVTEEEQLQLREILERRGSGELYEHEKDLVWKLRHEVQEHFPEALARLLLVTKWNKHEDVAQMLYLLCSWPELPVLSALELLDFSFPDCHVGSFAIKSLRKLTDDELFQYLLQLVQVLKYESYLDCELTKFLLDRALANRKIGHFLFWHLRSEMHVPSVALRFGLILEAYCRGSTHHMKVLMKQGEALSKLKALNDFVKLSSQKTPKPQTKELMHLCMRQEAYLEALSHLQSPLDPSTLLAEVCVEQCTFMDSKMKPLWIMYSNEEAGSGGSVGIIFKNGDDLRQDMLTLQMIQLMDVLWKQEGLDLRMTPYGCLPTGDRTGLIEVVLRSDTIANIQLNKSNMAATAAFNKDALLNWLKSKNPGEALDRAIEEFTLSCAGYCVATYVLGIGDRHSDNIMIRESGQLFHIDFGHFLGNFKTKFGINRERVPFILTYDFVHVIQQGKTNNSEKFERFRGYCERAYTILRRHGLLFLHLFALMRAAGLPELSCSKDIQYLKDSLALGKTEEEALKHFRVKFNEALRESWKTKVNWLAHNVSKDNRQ

Chain of PIK3CB (Human) (P42338 whole entry, looked up): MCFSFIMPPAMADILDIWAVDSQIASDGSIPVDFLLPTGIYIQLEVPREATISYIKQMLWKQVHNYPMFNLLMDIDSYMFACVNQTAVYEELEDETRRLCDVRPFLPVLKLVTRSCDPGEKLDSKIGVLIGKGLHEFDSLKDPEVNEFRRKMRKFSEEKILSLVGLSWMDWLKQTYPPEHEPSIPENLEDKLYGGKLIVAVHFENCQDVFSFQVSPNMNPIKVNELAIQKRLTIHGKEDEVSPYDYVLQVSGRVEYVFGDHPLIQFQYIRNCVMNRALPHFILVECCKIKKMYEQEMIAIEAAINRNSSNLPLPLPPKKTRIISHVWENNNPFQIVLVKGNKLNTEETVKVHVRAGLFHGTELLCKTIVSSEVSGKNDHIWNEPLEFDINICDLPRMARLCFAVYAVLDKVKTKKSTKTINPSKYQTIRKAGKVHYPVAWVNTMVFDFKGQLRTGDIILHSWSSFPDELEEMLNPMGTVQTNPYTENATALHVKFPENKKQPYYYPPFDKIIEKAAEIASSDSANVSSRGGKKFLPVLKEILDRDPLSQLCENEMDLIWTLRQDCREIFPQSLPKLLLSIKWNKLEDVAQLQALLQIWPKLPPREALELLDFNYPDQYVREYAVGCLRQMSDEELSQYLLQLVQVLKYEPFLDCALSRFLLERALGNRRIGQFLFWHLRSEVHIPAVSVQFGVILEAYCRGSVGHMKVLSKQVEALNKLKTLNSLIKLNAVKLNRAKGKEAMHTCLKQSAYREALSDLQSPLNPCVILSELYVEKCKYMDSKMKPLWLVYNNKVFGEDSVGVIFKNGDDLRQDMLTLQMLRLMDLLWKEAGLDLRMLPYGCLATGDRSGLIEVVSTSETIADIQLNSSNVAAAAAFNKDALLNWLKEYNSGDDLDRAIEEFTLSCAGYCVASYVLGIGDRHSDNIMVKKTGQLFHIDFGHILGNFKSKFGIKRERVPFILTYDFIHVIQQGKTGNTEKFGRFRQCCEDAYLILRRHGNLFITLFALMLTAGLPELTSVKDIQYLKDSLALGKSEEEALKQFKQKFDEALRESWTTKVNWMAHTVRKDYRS
Chain of PIK3CA (human) (P42336 whole entry, looked up): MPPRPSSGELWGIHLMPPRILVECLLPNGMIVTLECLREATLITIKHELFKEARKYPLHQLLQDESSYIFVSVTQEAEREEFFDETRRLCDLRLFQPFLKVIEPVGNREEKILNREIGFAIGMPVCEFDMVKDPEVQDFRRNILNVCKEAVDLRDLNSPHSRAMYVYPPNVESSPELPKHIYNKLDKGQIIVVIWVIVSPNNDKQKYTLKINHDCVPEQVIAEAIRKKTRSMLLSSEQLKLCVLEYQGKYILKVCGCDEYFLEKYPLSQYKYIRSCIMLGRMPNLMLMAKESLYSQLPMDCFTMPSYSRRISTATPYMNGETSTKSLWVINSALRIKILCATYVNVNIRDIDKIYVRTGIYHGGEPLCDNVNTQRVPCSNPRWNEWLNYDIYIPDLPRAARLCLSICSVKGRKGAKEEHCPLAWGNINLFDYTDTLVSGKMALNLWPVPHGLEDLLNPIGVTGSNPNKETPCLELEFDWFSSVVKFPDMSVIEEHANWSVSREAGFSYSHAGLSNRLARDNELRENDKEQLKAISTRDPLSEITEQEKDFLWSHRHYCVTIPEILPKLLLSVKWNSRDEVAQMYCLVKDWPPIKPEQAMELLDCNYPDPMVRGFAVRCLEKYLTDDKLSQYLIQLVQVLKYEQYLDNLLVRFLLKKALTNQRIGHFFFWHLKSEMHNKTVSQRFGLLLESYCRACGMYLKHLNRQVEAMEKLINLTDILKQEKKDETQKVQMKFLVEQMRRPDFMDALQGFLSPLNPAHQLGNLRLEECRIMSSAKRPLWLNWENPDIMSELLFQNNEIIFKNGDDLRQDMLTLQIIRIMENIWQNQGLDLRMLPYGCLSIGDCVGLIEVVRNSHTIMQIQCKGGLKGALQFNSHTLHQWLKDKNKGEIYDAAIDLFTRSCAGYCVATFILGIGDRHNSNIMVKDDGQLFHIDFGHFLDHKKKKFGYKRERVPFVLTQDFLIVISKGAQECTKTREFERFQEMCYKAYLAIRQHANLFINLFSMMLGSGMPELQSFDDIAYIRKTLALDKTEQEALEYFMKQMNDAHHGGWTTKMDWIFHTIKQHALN

SMILES | IC50 (PIK3CA (human)) [nM] | IC50 (PIK3CB (Human)) [nM] | IC50 (PIK3CD (Human)) [nM]
CCNC(=O)c1cc(-c2ccc3ncc4c(c3c2)n(-c2c(C)nn(C)c2C)c(=O)n4C)cnc1NC | 81 | 603 | 39
CCNc1cc(-c2ccc3ncc4c(c3c2)n(-c2c(C)noc2C)c(=O)n4C)cnc1Cl | 139 | 101 | 22
Cn1cc(-n2c(=O)n(C)c3cnc4ccc(-c5cncc(C(C)(C)O)c5)cc4c32)c(Cl)n1 | 8 | 5 | 5
COCc1ncc(-c2ccc3ncc4c(c3c2)n(-c2cn(C)nc2Cl)c(=O)n4C)cc1OC | 15 | 24 | 5
CCc1ncc(-c2ccc3ncc4c(c3c2)n(-c2cn(C)nc2C)c(=O)n4C)cc1OC(C)C | 41 | 73 | 18
COCc1cc(-c2ccc3ncc4c(c3c2)n(-c2cn(C)nc2Cl)c(=O)n4C)cnc1N | 9 | 7 | 3
CCn1cc(-n2c(=O)n(C)c3cnc4ccc(-c5ccc(-n6cccn6)cc5)cc4c32)c(C)n1 | 27 | – | 75
CCn1cc(-n2c(=O)n(C)c3cnc4ccc(-c5cnc(C)c(OC(C)C)c5)cc4c32)c(C)n1 | 4 | 30 | 5
